In data set [1] the test system is Moderate to severe Crohn's disease (CD) subjects. Nature of the data set: Phase IIa trial CD-LAQ-201: clinical effect (CDAI remission, response). The format is in vivo, human. Particulars: for effects on remission and response 100: week 8. On the procedure: Overall up to ˜180 Crohn's disease patients are enrolled.
The capsules were prepared using a blend proportional to the 0.6 mg capsules described in PCT International Application No. PCT/US2007/013721 (WO 2007/146248). The capsules were prepared according to the method described in PCT International Application No. PCT/US2007/013721 (WO 2007/146248), which is hereby incorporated by reference into this application.
A loading dose regimen of double the maintenance/intended dose was given during the first two days of study drug treatment. Thereafter, starting on day 3, the daily maintenance/intended dose was administered.
Subjects are required to maintain CDAI diary cards for each day of the screening period and, if randomized, on each day of the treatment and follow-up period. The scores obtained from the seven consecutive diaries completed prior to the baseline visit and to each of weeks 1, 2, 4, 6, 8 and 12 contribute to a total CDAI score at each of the time points.
Moderate to severe Crohn's disease (CD) subjects as determined by a Crohn's Disease Activity Index (CDAI) score of 220-450 (inclusive).
Each dose was studied sequentially in a distinct cohort.
Scheduled in-clinic visits were conducted at screening, baseline and at weeks 1, 2, 4, 6 and 8. […] Subjects who early-discontinues study drug prior to visit week 8 go to follow-up termination visit within 4 weeks (28 days) of study drug discontinuation.
The study exploratory efficacy outcome measures were chosen according to the draft EMEA guidelines for the treatment of active Crohn's disease/induction of remission (EMEA, 2007) • 1. Proportion of subjects in clinical remission (total CDAI score <150) at weeks 4, 6, 8 and 12 (and were not treatment failures). • 2. Proportion of subjects who respond to treatment (decrease from baseline of at least 100 points in CDAI score ore remission) at week 4, 6, 8 and 12. • 3. Time to remission. • 4. Time to response. • 5. C-Reactive Protein (CRP) change from baseline at weeks 2, 4, 6, 8 and 12. • 6. Fecal calprotectin change from baseline to weeks 2, 4, 6, 8 and 12. • 7. Proportion of subjects with a decrease from baseline of at least 50% in the number of open draining fistulas.

In another data set the test system is fecal calprotectin. The data set is described as follows: Phase IIa trial CD-LAQ-201: changes in fecal calprotectin levels. Particulars: for % of patients with a calprotectin decrease from ≧250 μg/g to below 250 μg/g & greater than 50% reduction: Week 8. The format is in vivo, human. The source says: As used herein, “calprotectin” is a calcium and zinc binding anti-microbial protein released by granulocytes. This protein can be detected in stool and its concentration reflects the number of polymorphonuclear leukocytes (PMN), migrating into the gut lumen. It is therefore considered a bio-marker for intestinal inflammation. […] Proportion of subjects in clinical remission (total CDAI score <150) at weeks 4, 6, 8 and 12 (and were not treatment failures). • 2. Proportion of subjects who respond to treatment (decrease from baseline of at least 100 points in CDAI score ore remission) at week 4, 6, 8 and 12. • 3. Time to remission. • 4. Time to response. • 5. C-Reactive Protein (CRP) change from baseline at weeks 2, 4, 6, 8 and 12. • 6. Fecal calprotectin change from baseline to weeks 2, 4, 6, 8 and 12. • 7. Proportion of subjects with a decrease from baseline of at least 50% in the number of open draining fistulas.

The nature of data set [2]: Previous pharmacokinetic studies of laquinimod. The format is in vivo. To be noted: loading dose regimen (double dose on first two days). The source says:
In order to decrease thee time to steady state and potentially decrease time to response, a loading dose regimen described below was used to allow steady state levels to be reached in approximately 6-7 days.

Here are results for one compound from patent US9161935B2 (TEVA PHARMACEUTICAL INDUSTRIES, LTD., priority 2012, dated 2015).

Structures are written as SMILES.

With `CCN(C(=O)c1c(O)c2c(Cl)cccc2n(C)c1=O)c1ccccc1` [laquinimod], the “effects on remission and response 100” value was “effects on remission and response 100 were observed” in data set [1] (0.5 mg/day); “lower magnitude effects” in data set [1] (1 mg/day). For the same compound, the “effects on remission and response (conclusion)” value in data set [1] (0.5 and 1 mg doses) is given as “clinically relevant effects”. Moreover, the “time at which clinical remission was achieved” value in data set [1] (laquinimod 0.5 mg/day group) is on record as no less than 2 week. Besides, in data set [1] (laquinimod 0.5 mg/day group), the “time at which response 100 was achieved” value came to 7 days. For the same compound, the “time to clinical remission and response 100 versus pooled placebo” value in data set [1] (laquinimod 0.5 mg/day group) is “earlier than patients in the pooled placebo group”. Besides, the “% Change from Baseline in fecal calprotectin level at Week 8, Mean ± SD” value with fecal calprotectin (Laq 0.5 mg) is listed as 25.5 ± 132.93%; with fecal calprotectin (Laq 1.0 mg), 0.2 ± 91.55%; with fecal calprotectin (Laq 1.5 mg), 13.9 ± 108.97%; in the data set with fecal calprotectin (Laq 2.0 mg), 44.3 ± 198.71%. Besides, the “% Change from Baseline in fecal calprotectin level at Week 8, Median” value in the data set on fecal calprotectin (Laq 0.5 mg) is reported as −23.1%; in the data set on fecal calprotectin (Laq 1.0 mg), −14.4%; with fecal calprotectin (Laq 1.5 mg), −18.7%; with fecal calprotectin (Laq 2.0 mg), −20.1%. The “% of patients with a calprotectin decrease from ≧250 μg/g to below 250 μg/g & greater than 50% reduction” value in the data set with fecal calprotectin (Laq 0.5 mg) came to 38.9%; in the data set on fecal calprotectin (Laq 1.0 mg), 38.9%; with fecal calprotectin (Laq 1.5 mg) it was 26.7%; with fecal calprotectin (Laq 2.0 mg), 36.4%. Besides, the “effect on fecal calprotectin” value in the data set with fecal calprotectin (all doses (0.5-2 mg/day)) is “reduced fecal calprotectin”. Besides, the “objective measures of intestinal inflammation in active CD” value in the data set on fecal calprotectin (all doses (LAQ 0.5-2 mg/day)) is recorded as “reduce objective measures of intestinal inflammation”. In the data set with fecal calprotectin (laquinimod groups (all doses), pooled placebo 13.6%), the “percentage of patients with fecal calprotectin ≧250 μg/g at baseline showing at least a 50% reduction and levels <250 μg/g at Week 8” value was 26.7-38.9%. In addition, the “time to steady state levels” value in data set [2] was 6 to 7 days.
